# According to patent publication US12415815B2, “Pyrido[2,3-e]oxazine derivatives as agricultural chemicals” (GLOBACHEM NV, priority 2020, dated 2025):
# Key:
# Type in all cases: cell-based
# Zymoseptoria tritici = assay: Fungicidal activity screen in amended agar, 96 well plates, Zymoseptoria tritici; conditions: 1% potato dextrose agar, 10,000 spores/mL, 20, 2, 0.2 and 0.02 ppm, room temperature (18° C.), assessed after 7 days; for EC50: Zymoseptoria tritici, 168 h, read-out: Zymoseptoria (fungal growth vs DMSO controls, EC50 ranking)
# Protocol: (§1) Compounds were screened in 96 well plates with 10 compounds per plate. Each compound was screened using agar amended to 20, 2, 0.2 and 0.02 ppm of the test material. Proline at 50 and 10 ppm and 0.2% DMSO were used respectively as positive and negative controls. Each test concentration and standard were tested twice on a plate.
# (§2) Compounds were screened against the following three fungal pathogens—Botrytis cinerea, Alternaria alternata and Zymoseptoria tritici. The agar used in the test varied depending on the pathogen with Medium N used for B. cinerea and A. alternata and 1% potato dextrose agar for Z. tritici. For each pathogen sufficient spores were added to the appropriate agar to give 1,000 spores/mL agar of A. alternata, 5,000 spores/ml agar of B. cinerea and 10,000 spores/mL agar of Z. tritici.
# (§3) A ×10 stock solution in 2% DMSO was produced for each dose i.e. 200, 20, 2 and 0.2 ppm, and 10 μl of this added to the appropriate wells on the plate. An equivalent amount of 2% DMSO and Proline stock at 500 and 100 ppm were added for the controls. To each well, 90 μl of the appropriate agar spore suspension was added to give the final well concentrations outlined in the first paragraph.
# (§4) Plates were incubated at room temperature (18° C.) and assessed after: • a) 3 to 4 days A. alternata and B. cinerea • b) 7 days for Z. tritici
# (§5) The amount of fungal growth in each well was compared to the DMSO controls and scored according to the following key: • A—EC50<2 ppm • B—2≤EC50<20 • C—EC50≥20 • D—No activity detected at the highest dose tested • NT—Not tested
# Botrytis cinerea = assay: Fungicidal activity screen in amended agar, 96 well plates, Botrytis cinerea; conditions: Medium N agar, 5,000 spores/ml, 20, 2, 0.2 and 0.02 ppm, room temperature (18° C.), assessed after 3 to 4 days, read-out: Botrytis (fungal growth vs DMSO controls, EC50 ranking)
# Protocol: as §1, §2, §3, §4, §5
# Alternaria alternata = assay: Fungicidal activity screen in amended agar, 96 well plates, Alternaria alternata; conditions: Medium N agar, 1,000 spores/mL, 20, 2, 0.2 and 0.02 ppm, room temperature (18° C.), assessed after 3 to 4 days, read-out: Alternaria (fungal growth vs DMSO controls, EC50 ranking)
# Protocol: as §1, §2, §3, §4, §5
compound,measurement,setting,value
"COc1ccnc2c(=O)n(-c3nc4ccc(Oc5cc(F)cc(F)c5)cc4s3)c(=S)oc12 [Example 21, 3-(6-(3,5-Difluorophenoxy)benzo[d]thiazol-2-yl)-8-methoxy-2-thioxo-2,3-dihydro-4H-pyrido[2,3-e][1,3]oxazin-4-one]",EC50,Zymoseptoria tritici,< 2 µg/mL
same,EC50,Botrytis cinerea,2 to 20 µg/mL
same,EC50,Alternaria alternata,2 to 20 µg/mL
"COc1ccnc2c(=O)n(-c3nc4ccc(N(C)c5ccc(Cl)cc5)cc4s3)c(=S)oc12 [Example 32, 3-(6-((4-chlorophenyl)(methyl)amino)benzo[d]thiazol-2-yl)-8-methoxy-2-thioxo-2,3-dihydro-4H-pyrido[2,3-e][1,3]oxazin-4-one]",EC50,Zymoseptoria tritici,< 2 µg/mL
"COc1ccnc2c(=O)n(-c3nc4ccc(N(C)c5cncc(Cl)c5)cc4s3)c(=S)oc12 [Example 33, 3-(6-((5-chloropyridin-3-yl)(methyl)amino)benzo[d]thiazol-2-yl)-8-methoxy-2-thioxo-2,3-dihydro-4H-pyrido[2,3-e][1,3]oxazin-4-one]",EC50,Zymoseptoria tritici,2 to 20 µg/mL
"COc1ccnc2c(=O)n(-c3nc4ccc(OCC(C)C)cc4s3)c(=S)oc12 [Example 43, 3-(6-isobutoxybenzo[d]thiazol-2-yl)-8-methoxy-2-thioxo-2,3-dihydro-4H-pyrido[2,3-e][1,3]oxazin-4-one]",EC50,Zymoseptoria tritici,< 2 µg/mL
"COc1ccnc2c(=O)n(-c3nc4ccc(Oc5ccc(F)cc5)cc4s3)c(=S)oc12 [Example 10, 3-(6-(4-Fluorophenoxy)benzo[d]thiazol-2-yl)-8-methoxy-2-thioxo-2,3-dihydro-4H-pyrido[2,3-e][1,3]oxazin-4-one]",EC50,Zymoseptoria tritici,< 2 µg/mL
same,EC50,Botrytis cinerea,2 to 20 µg/mL
same,EC50,Alternaria alternata,< 2 µg/mL
"COc1ccnc2c(=O)n(-c3nc4ccc(Oc5ccc(Cl)cc5)cc4s3)c(=S)oc12 [Example 25, 3-(6-(4-Chlorophenoxy)benzo[d]thiazol-2-yl)-8-methoxy-2-thioxo-2,3-dihydro-4H-pyrido[2,3-e][1,3]oxazin-4-one]",EC50,Zymoseptoria tritici,< 2 µg/mL
"COc1ccnc2c(=O)n(-c3nc4cnc(Oc5ccc(F)cc5Cl)nc4s3)c(=S)oc12 [Example 14, 3-(5-(2-Chloro-4-fluorophenoxy)thiazolo[5,4-d]pyrimidin-2-yl)-8-methoxy-2-thioxo-2,3-dihydro-4H-pyrido[2,3-e][1,3]oxazin-4-one]",EC50,Zymoseptoria tritici,< 2 µg/mL
"COc1ccccc1Oc1ccc2nc(-n3c(=S)oc4c(OC)ccnc4c3=O)sc2n1 [Example 42, 8-methoxy-3-(5-(2-methoxyphenoxy)thiazolo[5,4-b]pyridin-2-yl)-2-thioxo-2,3-dihydro-4H-pyrido[2,3-e][1,3]oxazin-4-one]",EC50,Zymoseptoria tritici,2 to 20 µg/mL
same,EC50,Botrytis cinerea,≥ 20 µg/mL
same,EC50,Alternaria alternata,≥ 20 µg/mL
"COCCOc1ccccc1Oc1ccc2nc(-n3c(=S)oc4c(OC)ccnc4c3=O)sc2c1 [Example 37, 8-methoxy-3-(6-(2-(2-methoxyethoxy)phenoxy)benzo[d]thiazol-2-yl)-2-thioxo-2,3-dihydro-4H-pyrido[2,3-e][1,3]oxazin-4-one]",EC50,Zymoseptoria tritici,2 to 20 µg/mL
"COc1ccnc2c(=O)n(-c3nc4ccc(Sc5ccccc5)cc4s3)c(=S)oc12 [Example 27, 8-Methoxy-3-(6-(phenylthio)benzo[d]thiazol-2-yl)-2-thioxo-2,3-dihydro-4H-pyrido[2,3-e][1,3]oxazin-4-one]",EC50,Zymoseptoria tritici,< 2 µg/mL
same,EC50,Botrytis cinerea,≥ 20 µg/mL
same,EC50,Alternaria alternata,2 to 20 µg/mL
"COc1ccnc2c(=O)n(-c3nc4ccc(Oc5ccccc5OC(F)(F)F)cc4s3)c(=S)oc12 [Example 39, 8-methoxy-2-thioxo-3-(6-(2-(trifluoromethoxy)phenoxy)benzo[d]thiazol-2-yl)-2,3-dihydro-4H-pyrido[2,3-e][1,3]oxazin-4-one]",EC50,Zymoseptoria tritici,< 2 µg/mL
same,EC50,Botrytis cinerea,≥ 20 µg/mL
same,EC50,Alternaria alternata,≥ 20 µg/mL
"COc1ccnc2c(=O)n(-c3nc4ccc(Oc5ccccc5)cc4s3)c(=S)oc12 [Example 17, 8-Methoxy-3-(6-phenoxybenzo[d]thiazol-2-yl)-2-thioxo-2,3-dihydro-4H-pyrido[2,3-e][1,3]oxazin-4-one]",EC50,Zymoseptoria tritici,< 2 µg/mL
same,EC50,Botrytis cinerea,2 to 20 µg/mL
same,EC50,Alternaria alternata,2 to 20 µg/mL
"COc1ccnc2c(=O)n(-c3nc4ccc(N(C)c5ccc(F)cc5Cl)cc4s3)c(=S)oc12 [Example 16, 3-(6-((2-Chloro-4-fluorophenyl)(methyl)amino)benzo[d]thiazol-2-yl)-8-methoxy-2-thioxo-2,3-dihydro-4H-pyrido[2,3-e][1,3]oxazin-4-one]",EC50,Zymoseptoria tritici,< 2 µg/mL
"COc1ccnc2c(=O)n(-c3nc4ccc(C(=O)c5ccccc5)cc4s3)c(=S)oc12 [Example 19, 3-(6-Benzoylbenzo[d]thiazol-2-yl)-8-methoxy-2-thioxo-2,3-dihydro-4H-pyrido[2,3-e][1,3]oxazin-4-one]",EC50,Zymoseptoria tritici,2 to 20 µg/mL
"COc1ccnc2c(=O)n(-c3nc4ccc(Oc5ccc(C(F)(F)F)cc5)cc4s3)c(=S)oc12 [Example 46, 8-methoxy-2-thioxo-3-(6-(4-(trifluoromethyl)phenoxy)benzo[d]thiazol-2-yl)-2,3-dihydro-4H-pyrido[2,3-e][1,3]oxazin-4-one]",EC50,Zymoseptoria tritici,< 2 µg/mL
"COc1ccnc2c(=O)n(-c3nc4ccc(Oc5ccccc5OCC5CC5)cc4s3)c(=S)oc12 [Example 44, 3-(6-(2-(cyclopropylmethoxy)phenoxy)benzo[d]thiazol-2-yl)-8-methoxy-2-thioxo-2,3-dihydro-4H-pyrido[2,3-e][1,3]oxazin-4-one]",EC50,Zymoseptoria tritici,2 to 20 µg/mL
"COc1ccnc2c(=O)n(-c3nc4ccc(C(=O)OC(C)C)cc4s3)c(=S)oc12 [Example 15, Isopropyl 2-(8-methoxy-4-oxo-2-thioxo-2H-pyrido[2,3-e][1,3]oxazin-3(4H)-yl)benzo[d]thiazole-6-carboxylate]",EC50,Zymoseptoria tritici,< 2 µg/mL
"COc1ccccc1Oc1ccc2nc(-n3c(=S)oc4c(OC)ccnc4c3=O)sc2c1 [Example 30, 8-methoxy-3-(6-(2-methoxyphenoxy)benzo[d]thiazol-2-yl)-2-thioxo-2,3-dihydro-4H-pyrido[2,3-e][1,3]oxazin-4-one]",EC50,Zymoseptoria tritici,< 2 µg/mL
"COc1ccnc2c(=O)n(-c3nc4ccc(Oc5ccccc5Cl)cc4s3)c(=S)oc12 [Example 18, 3-(6-(2-Chlorophenoxy)benzo[d]thiazol-2-yl)-8-methoxy-2-thioxo-2,3-dihydro-4H-pyrido[2,3-e][1,3]oxazin-4-one]",EC50,Zymoseptoria tritici,< 2 µg/mL
"COc1ccnc2c(=O)n(-c3nc4ccc(Cc5ccccc5)cc4s3)c(=S)oc12 [Example 24, 3-(6-Benzylbenzo[d]thiazol-2-yl)-8-methoxy-2-thioxo-2,3-dihydro-4H-pyrido[2,3-e][1,3]oxazin-4-one]",EC50,Zymoseptoria tritici,2 to 20 µg/mL
"COc1ccnc2c(=O)n(-c3nc4ccc(N(C)c5ccccc5Cl)cc4s3)c(=S)oc12 [Example 31, 3-(6-((2-chlorophenyl)(methyl)amino)benzo[d]thiazol-2-yl)-8-methoxy-2-thioxo-2,3-dihydro-4H-pyrido[2,3-e][1,3]oxazin-4-one]",EC50,Zymoseptoria tritici,< 2 µg/mL
"COc1ccccc1Sc1ccc2nc(-n3c(=S)oc4c(OC)ccnc4c3=O)sc2c1 [Example 45, 8-methoxy-3-(6-((2-methoxyphenyl)thio)benzo[d]thiazol-2-yl)-2-thioxo-2,3-dihydro-4H-pyrido[2,3-e][1,3] oxazin-4-one]",EC50,Zymoseptoria tritici,2 to 20 µg/mL
"3-(7-chloro-6-(2-chlorophenoxy) benzo[d]thiazol-2-yl)-8-methoxy-2- thioxo-2,3-dihydro-4H-pyrido[2,3- e][1,3]oxazin-4-one [Example 35]","Zymoseptoria (fungal growth vs DMSO controls, EC50 ranking)",Zymoseptoria tritici,A (EC50<2 ppm)
"COc1ccnc2c(=S)n(-c3nc4ccc(Oc5ccccc5Cl)cc4s3)c(=S)oc12 [Example 26, 3-(6-(2-Chlorophenoxy)benzo[d]thiazol-2-yl)-8-methoxy-2H-pyrido[2,3-e][1,3]oxazine-2,4(3H)-dithione]",EC50,Zymoseptoria tritici,< 2 µg/mL
"COc1ccnc2c(=O)n(-c3nc4ccc(Sc5ccccc5Cl)cc4s3)c(=S)oc12 [Example 34, 3-(6-((2-chlorophenyl)thio)benzo[d]thiazol-2-yl)-8-methoxy-2-thioxo-2,3-dihydro-4H-pyrido[2,3-e][1,3]oxazin-4-one]",EC50,Zymoseptoria tritici,< 2 µg/mL
"COc1ccnc2c(=O)n(-c3nc4cc(-c5ccccc5Cl)c(Oc5ccc(F)cc5Cl)cc4s3)c(=S)oc12 [Example 12, 3-(6-(2-Chloro-4-fluorophenoxy)-5-(2-chlorophenyl)benzo[d]thiazol-2-yl)-8-methoxy-2-thioxo-2,3-dihydro-4H-pyrido[2,3-e][1,3]oxazin-4-one]",EC50,Zymoseptoria tritici,< 2 µg/mL
"COc1ccnc2c(=O)n(-c3nc4c(-c5ccccc5)cc(Oc5ccc(F)cc5Cl)cc4s3)c(=S)oc12 [Example 13, 3-(6-(2-Chloro-4-fluorophenoxy)-4-phenylbenzo[d]thiazol-2-yl)-8-methoxy-2-thioxo-2,3-dihydro-4H-pyrido[2,3-e][1,3]oxazin-4-one]",EC50,Zymoseptoria tritici,< 2 µg/mL
